The values below come from PMC7429263 (ACS infectious diseases, 2020).

Molecules are shown by their SMILES. ≈ marks a conversion by molar mass, not a printed value. Like-named read-outs stand apart in the source and are kept apart here.

In one data set the test system is VanA E. faecalis BM 4166. The data set can be described thus: standard microdilution antimicrobial assay. The format is cell-based. On the technique in general: In broth dilution the organism is exposed to a series of concentrations in liquid medium.
In data set [1] the test system is VanA E. faecium ATCC BAA-2317. The experiment in a line: standard microdilution antimicrobial assay. The data set is classed as cell-based.
Another data set is described as follows: in vivo PK in mice. As to conditions: iv.
In data set [2] the test system is VanA VRE E. faecalis BM 4166 and E. faecium ATCC BAA-2317. The settings on record: 3 even at 100 μM; cited from earlier work.
Data set [3] concerns VanA VRE, 4 strains. The experiment in a line: standard microdilution assay, panel of vancomycin-resistant organisms. The data set is classed as cell-based, E. faecalis, E. faecium.
Data set [4] relates to two VanA VRE strains. As to conditions: same two VanA VRE strains; cited from earlier work.
In data set [5] the test system is VanA VRSA strain (VRS2), S. aureus. As to conditions: cited from earlier work.
The subject of data set [6] is VanA VRE E. faecalis BM 4166. The experiment in a line: microbe, parasite or virus in culture. The settings on record: Enterococcus faecalis.
Data set [7] relates to VanA VRE, 4 strains. As to conditions: resistant pathogens with D-Ala-D-Lac cell wall precursor; cited from earlier work.
The test system of data set [8] is VanA VRE E. faecalis BM 4166. As to conditions: BM 4166, +LTA 100 μg/mL.
The test system of data set [9] is two VanA VRE strains. The experiment in a line: multi-passage resistance development assay. The format is cell-based. The settings on record: Enterococcus.
The test system of data set [10] is MRSA S. aureus ATCC 43300. The data set can be described thus: standard microdilution antimicrobial assay. The data set is classed as cell-based. As to conditions: Staphylococcus aureus, ATCC43300|MRSA.
For the next data set, the system named is VanA E. faecium TX2465. The experiment in a line: standard microdilution antimicrobial assay. The format is cell-based. The settings on record: Enterococcus faecium.
Data set [11] relates to Sensitive S. aureus ATCC 25923. The data set can be described thus: standard microdilution antimicrobial assay. The data set is classed as cell-based. As to conditions: Staphylococcus aureus, ATCC25923.
For data set [12] the following is noted: D-Ala-D-Ala to D-Ala-D-Lac remodeling; cited from earlier work.
Data set [13] concerns VanA VRE E. faecalis BM 4166 and E. faecium ATCC BAA-2317. The data set can be described thus: microdilution antimicrobial assay with added LTA or other additives. The data set is classed as cell-based. The settings on record: 100 μg/mL LTA.
Data set [14] has the same test system. The data set can be described thus: bacteria cell membrane permeability assay. The settings on record: 10 μM added at 5 min.
Data set [15] deals with VanA VRE E. faecium ATCC BAA-2317. The format is cell-based. The settings on record: ATCC BAA-2317, +LTA 100 μg/mL.
For data set [16], the system named is VanB E. faecalis ATCC 51299. The data set can be described thus: standard microdilution antimicrobial assay. The format is cell-based. As to conditions: Enterococcus faecalis, ATCC51299.

For the compound `CN[C@H](CC(C)C)C(=O)N[C@H]1C(=O)N[C@@H](CC(N)=O)C(=O)N[C@H]2C(=O)N[C@H]3C(=O)N[C@H](C(=O)N[C@H](C(=O)N[C@@H](CCCNC(=N)N)C(=O)O)c4cc(O)cc(O)c4-c4cc3ccc4O)[C@H](O)c3ccc(c(Cl)c3)Oc3cc2cc(c3OC2OC(CO)C(O)[C@H](O)C2O[C@H]2CC(C)(N)[C@H](O)[C@H](C)O2)Oc2ccc(cc2Cl)[C@H]1O` (stereo partly shown) [Arg-vancomycin (11)], the MIC (against VanA E. faecalis BM 4166 (VanA E. faecalis BM 4166); in data set [1]) was 63 mg/L (≈ 39.2 µM) each time.

For orientation: Vss means the apparent volume that relates the amount in the body to the concentration in plasma or blood. A higher Vss goes with wide distribution into tissue. In the data set “in vivo PK in mice” (10 mg/kg), `CN[C@H](CC(C)C)C(=O)N[C@H]1C(=O)N[C@@H](CC(N)=O)C(=O)N[C@H]2C(=O)NC3C(=O)N[C@H](C(=O)N[C@H](C(=O)NCCC[N+](C)(C)C)c4cc(O)cc(O)c4-c4cc3ccc4O)[C@H](O)c3ccc(c(Cl)c3)Oc3cc2cc(c3OC2OC(CO)C(O)[C@H](O)[C@@H]2O[C@H]2CC(C)(NCc3ccc(-c4ccc(Cl)cc4)cc3)[C@H](O)[C@H](C)O2)Oc2ccc(cc2Cl)[C@H]1O` (stereo partly shown) [C1-CBP-vancomycin (4)] had an AUC of 48.4 Mg-h/mL, a CL of 0.12 L/h/kg, a Cmax of 14.5 Mg/mL and a Vss of 0.64 L/kg. In addition, in “in vivo PK in mice” (10 mg/kg), the t1/2 is recorded as 5.1 h and the tmax came to 4.8 min. Further, the “induced cell membrane permeabilization, in words” value in [2] is given as “pronounced membrane permeabilization”. Also, the “improvement in antimicrobial potency compared with vancomycin” value in the data set with VanA VRE, 4 strains [3] is recorded as “ca. 1000 fold”. In data set [1], this compound came in with an MIC of 0.3 mg/L.

As to `CN[C@H](CC(C)C)C(=O)N[C@H]1C(=O)N[C@@H](CC(N)=O)C(=O)N[C@H]2C(=O)NC3C(=O)N[C@H](C(=O)N[C@H](C(=O)NCCC[N+](C)(C)C)c4cc(O)cc(O)c4-c4cc3ccc4O)[C@H](O)c3ccc(c(Cl)c3)Oc3cc2cc(c3OC2OC(CO)C(O)[C@H](O)[C@@H]2O[C@H]2CC(C)(N)[C@H](O)[C@H](C)O2)Oc2ccc(cc2Cl)[C@H]1O` (stereo partly shown) [C1-vancomycin (3)], the “induced cell membrane permeabilization, in words” value in [2] is listed as “weaker”. Also, in [1], the MIC was 31 mg/L.

Turning to `CCCCCCCCCC(=O)N[C@@H](Cc1c[nH]c2ccccc12)C(=O)N[C@H](CC(N)=O)C(=O)N[C@@H](CC(=O)O)C(=O)N[C@@H]1C(=O)NCC(=O)N[C@@H](CCCN)C(=O)N[C@@H](CC(=O)O)C(=O)N[C@H](C)C(=O)N[C@@H](CC(=O)O)C(=O)NCC(=O)N[C@H](CO)C(=O)N[C@@H]([C@H](C)CC(=O)O)C(=O)N[C@@H](CC(=O)c2ccccc2N)C(=O)O[C@@H]1C` [daptomycin], the “rate of resistance emergence, in words” value in the data set on two VanA VRE strains [4] was “raise resistance more rapidly and in a more pronounced manner than either 2 or 5”.

On to `CC(=O)NC[C@H]1CN(c2ccc(N3CCOCC3)c(F)c2)C(=O)O1` [linezolid], for which the “rate of resistance emergence, in words” value in the data set on two VanA VRE strains [4] is “raise resistance more rapidly and in a more pronounced manner than either 2 or 5”.

As to `CN(C)c1cc(NC(=O)CNC(C)(C)C)c(O)c2c1C[C@H]1C[C@H]3[C@H](N(C)C)C(O)=C(C(N)=O)C(=O)[C@@]3(O)C(O)=C1C2=O` [tigecycline], the “rate of resistance emergence, in words” value in the data set on two VanA VRE strains [4] is “raise resistance more rapidly and in a more pronounced manner than either 2 or 5”.

For `CN[C@H](CC(C)C)C(=O)N[C@H]1C(=O)N[C@@H](CC(N)=O)C(=O)N[C@H]2C(=O)N[C@H]3C(=O)N[C@H](C(=O)N[C@H](C(=O)O)c4cc(O)cc(O)c4-c4cc3ccc4O)[C@H](O)c3ccc(c(Cl)c3)Oc3cc2cc(c3O[C@@H]2O[C@H](CO)[C@@H](O)[C@H](O)[C@H]2O[C@H]2C[C@](C)(N)[C@H](O)[C@H](C)O2)Oc2ccc(cc2Cl)[C@H]1O` [vancomycin (1), vancomycin], the “activity in the thigh infection model, in words” value in data set [5] is “inactive”. Moreover, the “dose proportionality of PK, in words” value in “in vivo PK in mice” is reported as “well behaved dose proportional PK across all parameters”. The MIC in data set [6] worked out at 250 mg/L (≈ 173 µM); in data set [8], 250 mg/L (≈ 173 µM); against two VanA VRE strains [9], 250 mg/L (≈ 173 µM); in [10], 0.5 mg/L (≈ 0.345 µM); against VanA E. faecium TX2465, 250 mg/L (≈ 173 µM); in data set [11] it was 0.5 mg/L (≈ 0.345 µM). Also, the MIC came to 250 mg/L (≈ 173 µM) in the data set on VanA E. faecalis BM 4166 (Enterococcus faecalis), 250 mg/L (≈ 173 µM) in data set [15] and 8 mg/L (≈ 5.52 µM) in data set [16]. In addition, the “reduction of antimicrobial potency” value in the data set with VanA VRE, 4 strains [7] is 1000 fold. For the same compound, the “reduction of binding affinity” value in data set [12] is listed as 1000 fold. For the same compound, the “decrease of antimicrobial activity with added LTA” value in data set [13] is “no difference”. Moreover, in data set [14], the “induced cell membrane permeabilization, in words” value is reported as “no permeabilization”.
